Measurements from US20250353891A1 (MEDIMMUNE LIMITED, priority 2022, published 2025).
Starred links: 1 amine or outer side, 2 acyl side, 3 side chain; linkers in the order of their positions; H or OH if unused. Non-standard residues stand in square brackets, D forms with d. Residues, ends and D or L forms follow the SMILES beside them. Groups on a side chain read outwards from the residue. *: point of attachment. C18 diacid = O=C(O)CCCCCCCCCCCCCCCCC(=O)*; γGlu = O=C(O)[C@H](CCC(=O)[*:2])N[*:1]; Palmitoyl = CCCCCCCCCCCCCCCC(=O)*; αMeF = C[C@](N)(Cc1ccccc1)C(=O)O; Myristoyl = CCCCCCCCCCCCCC(=O)*; αMeS = C[C@](N)(CO)C(=O)O; PEG2 = NCCOCCOCCC(=O)O; AEEA = NCCOCCOCC(=O)O; Aib = CC(C)(N)C(=O)O

Assays:
[1] = molecular target: human GLP-1 receptor (hGLP-1R) (Homo sapiens, UniProt P43220); assay: cAMP production (HTRF) in CHO cells expressing hGLP-1R; assay type: cell-based; set-up: expressed in transfected cells; conditions: for % Relative Potency Ratio: Table 6, % GLP-1R activity relative to GLP-1 / % GlucR activity relative to glucagon; for EC50: Table 6, peptides modified at position 17, cAMP in CHO hGLP-1R cells, geometric mean, read-out: hGLP-1R EC50
Chain of human GLP-1 receptor (hGLP-1R) (P43220 24-463): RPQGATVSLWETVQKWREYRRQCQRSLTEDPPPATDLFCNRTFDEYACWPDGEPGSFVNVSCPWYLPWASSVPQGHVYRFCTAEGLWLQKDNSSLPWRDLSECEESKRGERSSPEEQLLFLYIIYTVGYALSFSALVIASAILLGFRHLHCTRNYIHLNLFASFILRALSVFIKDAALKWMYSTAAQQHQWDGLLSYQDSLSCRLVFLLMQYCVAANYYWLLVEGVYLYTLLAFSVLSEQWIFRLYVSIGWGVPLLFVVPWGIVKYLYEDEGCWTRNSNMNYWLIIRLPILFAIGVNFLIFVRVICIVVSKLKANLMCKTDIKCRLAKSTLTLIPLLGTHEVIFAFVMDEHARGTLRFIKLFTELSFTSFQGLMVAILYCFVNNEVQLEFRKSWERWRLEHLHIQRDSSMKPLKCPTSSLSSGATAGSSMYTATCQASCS
In short: (§1)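 Read-out: HTRF cAMP (anti-cAMP cryptate donor, cAMP-d2 acceptor in conjugate/lysis buffer), converted to % Delta F and fitted by 4-parameter logistic for EC50. Cell densities were 1×10^5 cells/mL (hGLP-1R) or 2×10^5 cells/mL (hGCGR). Stimulation lasted 30 min at room temperature.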

[2] = molecular target: human glucagon receptor (hGCGR) (Homo sapiens, UniProt P47871); assay: cAMP production (HTRF) in CHO cells expressing hGCGR; assay type: cell-based; set-up: expressed in transfected cells; conditions: Table 6, peptides modified at position 17; cAMP in CHO hGCGR cells; geometric mean; read-out: hGluc-R EC50
Chain of human glucagon receptor (hGCGR) (P47871 26-477): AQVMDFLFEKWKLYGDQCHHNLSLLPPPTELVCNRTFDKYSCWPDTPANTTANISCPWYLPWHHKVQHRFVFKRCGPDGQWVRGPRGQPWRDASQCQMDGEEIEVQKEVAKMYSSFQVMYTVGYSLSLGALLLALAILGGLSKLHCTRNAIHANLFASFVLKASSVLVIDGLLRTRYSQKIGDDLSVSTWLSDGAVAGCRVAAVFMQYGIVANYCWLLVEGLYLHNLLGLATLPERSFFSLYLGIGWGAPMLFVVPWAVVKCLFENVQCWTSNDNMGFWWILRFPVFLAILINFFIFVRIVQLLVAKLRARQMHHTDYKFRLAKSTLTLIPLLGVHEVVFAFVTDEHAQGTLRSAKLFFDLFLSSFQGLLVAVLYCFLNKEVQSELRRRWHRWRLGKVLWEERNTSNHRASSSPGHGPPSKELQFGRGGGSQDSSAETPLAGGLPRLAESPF
In short: as §1

SMILES	% Relative Potency Ratio [1]	EC50 [2] [nM]	EC50 [1] [nM]
CCCCCCCCCCCCCCCC(=O)N[C@@H](CCC(=O)NCCOCCOCCC(=O)NCCOCCOCCC(=O)NCCCC[C@H](NC(=O)[C@H](CO)NC(=O)[C@H](CC(=O)O)NC(=O)[C@H](CC(C)C)NC(=O)[C@@H](NC(=O)[C@H](CCCCN)NC(=O)[C@H](CO)NC(=O)[C@@H](NC(=O)[C@H](CC(=O)O)NC(=O)[C@H](CO)NC(=O)[C@@H](NC(=O)[C@](C)(Cc1ccccc1)NC(=O)[C@H](CO)NC(=O)CNC(=O)[C@H](CCC(N)=O)NC(=O)[C@](C)(CO)NC(=O)[C@@H](N)Cc1c[nH]cn1)[C@@H](C)O)C(C)C)[C@@H](C)CC)C(=O)N[C@@H](C)C(=O)N[C@@H](C)C(=O)N[C@@H](CCC(N)=O)C(=O)N[C@@H](CC(=O)O)C(=O)N[C@@](C)(Cc1ccccc1)C(=O)N[C@H](C(=O)N[C@@H](CCC(N)=O)C(=O)NC(C)(C)C(=O)N[C@H](C(=O)N[C@H](C(=O)N[C@@H](CC(N)=O)C(=O)N[C@H](C(N)=O)[C@@H](C)O)[C@@H](C)CC)[C@@H](C)CC)C(C)C)C(=O)O [Peptide 134] (H-H[αMeS]QGS[αMeF]TSDVSKILDSK([PEG2-PEG2-γGlu-Palmitoyl])AAQD[αMeF]VQ[Aib]IINT-NH2; N-terminus assumed)	50.1	0.015	
CCCCCCCCCCCCCC(=O)N[C@@H](CCC(=O)NCCOCCOCCC(=O)NCCOCCOCCC(=O)NCCCC[C@H](NC(=O)[C@H](CO)NC(=O)[C@H](CC(=O)O)NC(=O)[C@H](CC(C)C)NC(=O)[C@@H](NC(=O)[C@H](CCCCN)NC(=O)[C@H](CO)NC(=O)[C@@H](NC(=O)[C@H](CC(=O)O)NC(=O)[C@H](CO)NC(=O)[C@@H](NC(=O)[C@](C)(Cc1ccccc1)NC(=O)[C@H](CO)NC(=O)CNC(=O)[C@H](CCC(N)=O)NC(=O)[C@](C)(CO)NC(=O)[C@@H](N)Cc1c[nH]cn1)[C@@H](C)O)C(C)C)[C@@H](C)CC)C(=O)N[C@@H](C)C(=O)N[C@@H](C)C(=O)N[C@@H](CCC(N)=O)C(=O)N[C@@H](CC(=O)O)C(=O)N[C@@](C)(Cc1ccccc1)C(=O)N[C@H](C(=O)N[C@@H](CCC(N)=O)C(=O)NC(C)(C)C(=O)N[C@H](C(=O)N[C@H](C(=O)N[C@@H](CC(N)=O)C(=O)N[C@H](C(N)=O)[C@@H](C)O)[C@@H](C)CC)[C@@H](C)CC)C(C)C)C(=O)O [Peptide 135] (H-H[αMeS]QGS[αMeF]TSDVSKILDSK([PEG2-PEG2-γGlu-Myristoyl])AAQD[αMeF]VQ[Aib]IINT-NH2; N-terminus assumed)	72.8	0.015	
CC(C)C[C@H](NC(=O)[C@H](Cc1c[nH]c2ccccc12)NC(=O)[C@H](C)NC(=O)[C@@H](NC(=O)[C@H](Cc1ccccc1)NC(=O)[C@H](CC(=O)O)NC(=O)[C@H](CCC(N)=O)NC(=O)[C@H](C)NC(=O)[C@H](CCCNC(=N)N)NC(=O)[C@H](CCCCNC(=O)COCCOCCNC(=O)COCCOCCNC(=O)CC[C@H](NC(=O)CCCCCCCCCCCCCCCCC(=O)O)C(=O)O)NC(=O)[C@H](CO)NC(=O)[C@H](CC(=O)O)NC(=O)[C@H](CC(C)C)NC(=O)[C@](C)(Cc1ccccc1)NC(=O)[C@H](CCCCN)NC(=O)[C@H](CO)NC(=O)[C@@H](NC(=O)[C@H](CC(=O)O)NC(=O)[C@H](CO)NC(=O)[C@@H](NC(=O)[C@H](Cc1ccccc1)NC(=O)[C@@H](NC(=O)CNC(=O)[C@H](CCC(N)=O)NC(=O)C(C)(C)NC(=O)[C@@H](N)Cc1c[nH]cn1)[C@@H](C)O)[C@@H](C)O)C(C)C)C(C)C)C(=O)N[C@@H](CC(C)C)C(=O)N[C@@H](CCC(=O)O)C(=O)NC(C)(C)C(=O)NCC(=O)O [Peptide 141] (H-H[Aib]QGTFTSDVSK[αMeF]LDSK([AEEA-AEEA-γGlu-C18 diacid])RAQDFVAWLLE[Aib]G-OH; N-terminus assumed)	2.9	0.392	0.264
CC(C)C[C@H](NC(=O)[C@H](Cc1c[nH]c2ccccc12)NC(=O)[C@H](C)NC(=O)[C@@H](NC(=O)[C@H](Cc1ccccc1)NC(=O)[C@H](CC(=O)O)NC(=O)[C@H](CCCNC(=N)N)NC(=O)[C@H](C)NC(=O)[C@H](CCCNC(=N)N)NC(=O)[C@H](CCCCNC(=O)COCCOCCNC(=O)COCCOCCNC(=O)CC[C@H](NC(=O)CCCCCCCCCCCCCCCCC(=O)O)C(=O)O)NC(=O)[C@H](CO)NC(=O)[C@H](CC(=O)O)NC(=O)[C@H](CC(C)C)NC(=O)[C@](C)(Cc1ccccc1)NC(=O)[C@H](CCCCN)NC(=O)[C@H](CO)NC(=O)[C@@H](NC(=O)[C@H](CC(=O)O)NC(=O)[C@H](CO)NC(=O)[C@@H](NC(=O)[C@H](Cc1ccccc1)NC(=O)[C@@H](NC(=O)CNC(=O)[C@H](CCC(N)=O)NC(=O)C(C)(C)NC(=O)[C@@H](N)Cc1c[nH]cn1)[C@@H](C)O)[C@@H](C)O)C(C)C)C(C)C)C(=O)N[C@@H](CC(C)C)C(=O)N[C@@H](CCC(=O)O)C(=O)NC(C)(C)C(=O)NCC(=O)O [Peptide 142] (H-H[Aib]QGTFTSDVSK[αMeF]LDSK([AEEA-AEEA-γGlu-C18 diacid])RARDFVAWLLE[Aib]G-OH; N-terminus assumed)	3.6	0.108	0.0594

The next lines start with the values.

% Relative Potency Ratio [1]	EC50 [2] [nM]	EC50 [1] [nM]	SMILES
3.7	0.268	0.143	CC(C)C[C@H](NC(=O)[C@H](CC(C)C)NC(=O)[C@H](Cc1c[nH]c2ccccc12)NC(=O)[C@H](CCCNC(=N)N)NC(=O)[C@@H](NC(=O)[C@H](Cc1ccccc1)NC(=O)[C@H](CC(=O)O)NC(=O)[C@H](CCC(N)=O)NC(=O)[C@H](C)NC(=O)[C@H](CCCNC(=N)N)NC(=O)[C@H](CCCCNC(=O)CC[C@H](NC(=O)CC[C@H](NC(=O)COCCOCCNC(=O)COCCOCCNC(=O)CC[C@H](NC(=O)CC[C@H](NC(=O)CCCCCCCCCCCCCCCCC(=O)O)C(=O)O)C(=O)O)C(=O)O)C(=O)O)NC(=O)[C@H](CO)NC(=O)[C@H](CC(=O)O)NC(=O)[C@H](CC(C)C)NC(=O)[C@](C)(Cc1ccccc1)NC(=O)[C@H](CCCCN)NC(=O)[C@H](CO)NC(=O)[C@@H](NC(=O)[C@H](CC(=O)O)NC(=O)[C@H](CO)NC(=O)[C@@H](NC(=O)[C@H](Cc1ccccc1)NC(=O)[C@@H](NC(=O)CNC(=O)[C@H](CCC(N)=O)NC(=O)C(C)(C)NC(=O)[C@@H](N)Cc1c[nH]cn1)[C@@H](C)O)[C@@H](C)O)C(C)C)C(C)C)C(=O)N[C@@H](CCC(=O)O)C(=O)NCC(=O)NC(C)(C)C(=O)O [Peptide 137] (H-H[Aib]QGTFTSDVSK[αMeF]LDSK([γGlu-γGlu-AEEA-AEEA-γGlu-γGlu-C18 diacid])RAQDFVRWLLEG[Aib]-OH; N-terminus assumed)
3.5	0.184	0.104	CC(C)C[C@H](NC(=O)[C@H](Cc1c[nH]c2ccccc12)NC(=O)[C@H](CCCNC(=N)N)NC(=O)[C@@H](NC(=O)[C@H](Cc1ccccc1)NC(=O)[C@H](CC(=O)O)NC(=O)[C@H](CCC(N)=O)NC(=O)[C@H](C)NC(=O)[C@H](CCCNC(=N)N)NC(=O)[C@H](CCCCNC(=O)CC[C@H](NC(=O)CC[C@H](NC(=O)COCCOCCNC(=O)COCCOCCNC(=O)CC[C@H](NC(=O)CC[C@H](NC(=O)CCCCCCCCCCCCCCCCC(=O)O)C(=O)O)C(=O)O)C(=O)O)C(=O)O)NC(=O)[C@H](CO)NC(=O)[C@H](CC(=O)O)NC(=O)[C@H](CC(C)C)NC(=O)[C@](C)(Cc1ccccc1)NC(=O)[C@H](CCCCN)NC(=O)[C@H](CO)NC(=O)[C@@H](NC(=O)[C@H](CC(=O)O)NC(=O)[C@H](CO)NC(=O)[C@@H](NC(=O)[C@H](Cc1ccccc1)NC(=O)[C@@H](NC(=O)CNC(=O)[C@H](CCC(N)=O)NC(=O)C(C)(C)NC(=O)[C@@H](N)Cc1c[nH]cn1)[C@@H](C)O)[C@@H](C)O)C(C)C)C(C)C)C(=O)N[C@@H](CC(C)C)C(=O)N[C@@H](CCC(=O)O)C(=O)NC(C)(C)C(=O)NCC(=O)O [Peptide 138] (H-H[Aib]QGTFTSDVSK[αMeF]LDSK([γGlu-γGlu-AEEA-AEEA-γGlu-γGlu-C18 diacid])RAQDFVRWLLE[Aib]G-OH; N-terminus assumed)
3.1	0.984	0.63	CC(C)C[C@H](NC(=O)[C@H](Cc1c[nH]c2ccccc12)NC(=O)[C@H](CCCNC(=N)N)NC(=O)[C@@H](NC(=O)[C@H](Cc1ccccc1)NC(=O)[C@H](CC(=O)O)NC(=O)[C@H](CCC(N)=O)NC(=O)[C@H](C)NC(=O)[C@H](CCCNC(=N)N)NC(=O)[C@H](CCCCNC(=O)CC[C@H](NC(=O)CC[C@H](NC(=O)COCCOCCNC(=O)COCCOCCNC(=O)CC[C@H](NC(=O)CC[C@H](NC(=O)CCCCCCCCCCCCCCCCCCC(=O)O)C(=O)O)C(=O)O)C(=O)O)C(=O)O)NC(=O)[C@H](CO)NC(=O)[C@H](CC(=O)O)NC(=O)[C@H](CC(C)C)NC(=O)[C@](C)(Cc1ccccc1)NC(=O)[C@H](CCCCN)NC(=O)[C@H](CO)NC(=O)[C@@H](NC(=O)[C@H](CC(=O)O)NC(=O)[C@H](CO)NC(=O)[C@@H](NC(=O)[C@H](Cc1ccccc1)NC(=O)[C@@H](NC(=O)CNC(=O)[C@H](CCC(N)=O)NC(=O)C(C)(C)NC(=O)[C@@H](N)Cc1c[nH]cn1)[C@@H](C)O)[C@@H](C)O)C(C)C)C(C)C)C(=O)N[C@@H](CC(C)C)C(=O)N[C@@H](CCC(=O)O)C(=O)NC(C)(C)C(=O)NCC(=O)O [Peptide 139]
